According to PubChem BioAssay (NCI):
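48-hour exposure; five concentrations; linearly interpolated endpoints. At the TGI there is no net growth.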

Columns and labels:
Assay in all cases: NCI anticancer screen, dose series, 48 h
U251 CNS = tested on: U251 CNS
786-0 renal = tested on: 786-0 renal
NCI-H460 lung = tested on: NCI-H460 lung
DU-145 prostate = tested on: DU-145 prostate
NCI-H522 lung = tested on: NCI-H522 lung
BT-549 breast = tested on: BT-549 breast
OVCAR-5 ovarian = tested on: OVCAR-5 ovarian
COLO 205 colon = tested on: COLO 205 colon
M14 melanoma = tested on: M14 melanoma
MDA-MB-435 = tested on: MDA-MB-435
OVCAR-8 ovarian = tested on: OVCAR-8 ovarian
MCF7 breast = tested on: MCF7 breast
OVCAR-4 ovarian = tested on: OVCAR-4 ovarian
HT29 colon = tested on: HT29 colon
MDA-N = tested on: MDA-N
HS 578T breast = tested on: HS 578T breast
KM12 colon = tested on: KM12 colon
HOP-92 NSCLC = tested on: HOP-92 NSCLC
SN12C renal = tested on: SN12C renal
UO-31 renal = tested on: UO-31 renal
UACC-62 melanoma = tested on: UACC-62 melanoma
IGROV1 ovarian = tested on: IGROV1 ovarian
MDA-MB-231 breast = tested on: MDA-MB-231 breast
SK-MEL-5 melanoma = tested on: SK-MEL-5 melanoma
RPMI-8226 leukemia = tested on: RPMI-8226 leukemia
A549 NSCLC = tested on: A549 NSCLC
ACHN renal = tested on: ACHN renal
NCI/ADR-RES ovarian = tested on: NCI/ADR-RES ovarian
T-47D breast = tested on: T-47D breast
NCI-H23 lung = tested on: NCI-H23 lung
SW-620 colon = tested on: SW-620 colon
HOP-62 NSCLC = tested on: HOP-62 NSCLC
CCRF-CEM leukemia = tested on: CCRF-CEM leukemia
SK-MEL-2 melanoma = tested on: SK-MEL-2 melanoma
MOLT-4 leukemia = tested on: MOLT-4 leukemia
SF-295 CNS = tested on: SF-295 CNS
HCT-15 colon = tested on: HCT-15 colon
EKVX NSCLC = tested on: EKVX NSCLC
MALME-3M melanoma = tested on: MALME-3M melanoma
TK-10 renal = tested on: TK-10 renal
OVCAR-3 ovarian = tested on: OVCAR-3 ovarian
SF-268 CNS = tested on: SF-268 CNS
HCT-116 colon = tested on: HCT-116 colon
SNB-19 CNS = tested on: SNB-19 CNS
NCI-H226 lung = tested on: NCI-H226 lung
SK-MEL-28 melanoma = tested on: SK-MEL-28 melanoma
PC-3 prostate = tested on: PC-3 prostate
SR leukemia = tested on: SR leukemia
SK-OV-3 ovarian = tested on: SK-OV-3 ovarian
HCC-2998 colon = tested on: HCC-2998 colon
K-562 leukemia = tested on: K-562 leukemia
UACC-257 melanoma = tested on: UACC-257 melanoma
CAKI-1 renal = tested on: CAKI-1 renal
SF-539 CNS = tested on: SF-539 CNS
HL-60(TB) leukemia = tested on: HL-60(TB) leukemia
SNB-75 CNS = tested on: SNB-75 CNS
LOX IMVI melanoma = tested on: LOX IMVI melanoma
A498 renal = tested on: A498 renal

COc1ccc(-n2sc3ncc(C)cc3c2=O)cc1
TGI (U251 CNS): 52.6 µM
TGI (786-0 renal): 31 µM
TGI (NCI-H460 lung): > 100 µM
TGI (DU-145 prostate): 44 µM
TGI (NCI-H522 lung): 45.8 µM
TGI (BT-549 breast): 35.6 µM
TGI (OVCAR-5 ovarian): 34.7 µM
TGI (COLO 205 colon): 29.5 µM
TGI (M14 melanoma): 32.7 µM
TGI (MDA-MB-435): 40.5 µM
TGI (OVCAR-8 ovarian): 35.2 µM
TGI (MCF7 breast): 44.2 µM
TGI (OVCAR-4 ovarian): > 100 µM
TGI (HT29 colon): 31.9 µM
TGI (MDA-N): 31.8 µM
TGI (HS 578T breast): 83.7 µM
TGI (KM12 colon): 29.6 µM
TGI (HOP-92 NSCLC): 42.1 µM
TGI (SN12C renal): 35.4 µM
TGI (UO-31 renal): 31.4 µM
TGI (UACC-62 melanoma): 34.9 µM
TGI (IGROV1 ovarian): > 100 µM
TGI (MDA-MB-231 breast): 30.7 µM
TGI (SK-MEL-5 melanoma): 26 µM
TGI (RPMI-8226 leukemia): 67.2 µM
TGI (A549 NSCLC): 44.7 µM
TGI (ACHN renal): 32.3 µM
TGI (NCI/ADR-RES ovarian): 64.4 µM
TGI (T-47D breast): 39.4 µM
TGI (NCI-H23 lung): 57.7 µM
TGI (SW-620 colon): 89.6 µM
TGI (HOP-62 NSCLC): 45.9 µM
TGI (CCRF-CEM leukemia): 37.5 µM
TGI (SK-MEL-2 melanoma): 52.7 µM
TGI (MOLT-4 leukemia): > 100 µM
TGI (SF-295 CNS): > 100 µM
TGI (HCT-15 colon): 38.7 µM
TGI (EKVX NSCLC): 33.6 µM
TGI (MALME-3M melanoma): 38.5 µM
TGI (TK-10 renal): 33.2 µM
TGI (OVCAR-3 ovarian): 32.4 µM
TGI (SF-268 CNS): 40.6 µM
TGI (HCT-116 colon): 34.5 µM
TGI (SNB-19 CNS): > 100 µM
TGI (NCI-H226 lung): 84.6 µM
TGI (SK-MEL-28 melanoma): 73 µM
TGI (PC-3 prostate): 29 µM
TGI (SR leukemia): > 100 µM
TGI (SK-OV-3 ovarian): > 100 µM
TGI (HCC-2998 colon): > 100 µM
TGI (K-562 leukemia): > 100 µM

CC(=O)OC1(C)C(=O)OC/C2=C/CN(C)CCC(OC(=O)C(O)(C(C)Cl)CC1C)C2=O (configuration not stated)
TGI (U251 CNS): > 100 µM
TGI (786-0 renal): > 100 µM
TGI (NCI-H460 lung): > 100 µM
TGI (DU-145 prostate): > 100 µM
TGI (NCI-H522 lung): > 100 µM
TGI (BT-549 breast): > 100 µM
TGI (OVCAR-5 ovarian): > 100 µM
TGI (COLO 205 colon): > 100 µM
TGI (M14 melanoma): > 100 µM
TGI (MDA-MB-435): > 100 µM
TGI (OVCAR-8 ovarian): > 100 µM
TGI (MCF7 breast): > 100 µM
TGI (UACC-257 melanoma): > 100 µM
TGI (OVCAR-4 ovarian): > 100 µM
TGI (CAKI-1 renal): > 100 µM
TGI (HT29 colon): > 100 µM
TGI (MDA-N): > 100 µM
TGI (HS 578T breast): > 100 µM
TGI (KM12 colon): > 100 µM
TGI (HOP-92 NSCLC): > 100 µM
TGI (SN12C renal): > 100 µM
TGI (UO-31 renal): > 100 µM
TGI (UACC-62 melanoma): > 100 µM
TGI (IGROV1 ovarian): > 100 µM
TGI (MDA-MB-231 breast): > 100 µM
TGI (SK-MEL-5 melanoma): > 100 µM
TGI (RPMI-8226 leukemia): > 100 µM
TGI (A549 NSCLC): > 100 µM
TGI (ACHN renal): > 100 µM
TGI (NCI/ADR-RES ovarian): > 100 µM
TGI (T-47D breast): > 100 µM
TGI (NCI-H23 lung): > 100 µM
TGI (SF-539 CNS): > 100 µM
TGI (SW-620 colon): > 100 µM
TGI (HL-60(TB) leukemia): > 100 µM
TGI (HOP-62 NSCLC): > 100 µM
TGI (CCRF-CEM leukemia): > 100 µM
TGI (SK-MEL-2 melanoma): > 100 µM
TGI (MOLT-4 leukemia): > 100 µM
TGI (SF-295 CNS): > 100 µM
TGI (SNB-75 CNS): > 100 µM
TGI (LOX IMVI melanoma): > 100 µM
TGI (HCT-15 colon): > 100 µM
TGI (A498 renal): > 100 µM
TGI (EKVX NSCLC): > 100 µM
TGI (TK-10 renal): > 100 µM
TGI (OVCAR-3 ovarian): > 100 µM
TGI (SF-268 CNS): > 100 µM
TGI (HCT-116 colon): > 100 µM
TGI (SNB-19 CNS): > 100 µM
TGI (NCI-H226 lung): > 100 µM
TGI (SK-MEL-28 melanoma): > 100 µM
TGI (PC-3 prostate): > 100 µM
TGI (SR leukemia): > 100 µM
TGI (SK-OV-3 ovarian): > 100 µM
TGI (HCC-2998 colon): > 100 µM
TGI (K-562 leukemia): > 100 µM

O=C(CC(=O)Nc1ccc(C(=O)O)cc1)Nc1ccc(C(=O)O)cc1
TGI (U251 CNS): > 100 µM
TGI (786-0 renal): > 100 µM
TGI (NCI-H460 lung): > 100 µM
TGI (DU-145 prostate): > 100 µM
TGI (NCI-H522 lung): > 100 µM
TGI (BT-549 breast): > 100 µM
TGI (COLO 205 colon): > 100 µM
TGI (M14 melanoma): > 100 µM
TGI (MDA-MB-435): > 100 µM
TGI (OVCAR-8 ovarian): > 100 µM
TGI (MCF7 breast): > 100 µM
TGI (UACC-257 melanoma): > 100 µM
TGI (OVCAR-4 ovarian): > 100 µM
TGI (CAKI-1 renal): > 100 µM
TGI (HT29 colon): > 100 µM
TGI (MDA-N): > 100 µM
TGI (HS 578T breast): > 100 µM
TGI (KM12 colon): > 100 µM
TGI (HOP-92 NSCLC): > 100 µM
TGI (SN12C renal): > 100 µM
TGI (UO-31 renal): > 100 µM
TGI (UACC-62 melanoma): > 100 µM
TGI (IGROV1 ovarian): > 100 µM
TGI (MDA-MB-231 breast): > 100 µM
TGI (SK-MEL-5 melanoma): > 100 µM
TGI (RPMI-8226 leukemia): > 100 µM
TGI (A549 NSCLC): > 100 µM
TGI (ACHN renal): > 100 µM
TGI (NCI/ADR-RES ovarian): > 100 µM
TGI (T-47D breast): > 100 µM
TGI (NCI-H23 lung): > 100 µM
TGI (SF-539 CNS): > 100 µM
TGI (SW-620 colon): > 100 µM
TGI (HL-60(TB) leukemia): > 100 µM
TGI (CCRF-CEM leukemia): > 100 µM
TGI (SK-MEL-2 melanoma): 40 µM
TGI (MOLT-4 leukemia): > 100 µM
TGI (SF-295 CNS): > 100 µM
TGI (LOX IMVI melanoma): > 100 µM
TGI (A498 renal): > 100 µM
TGI (EKVX NSCLC): > 100 µM
TGI (MALME-3M melanoma): > 100 µM
TGI (TK-10 renal): > 100 µM
TGI (OVCAR-3 ovarian): > 100 µM
TGI (SF-268 CNS): > 100 µM
TGI (HCT-116 colon): > 100 µM
TGI (SNB-19 CNS): > 100 µM
TGI (NCI-H226 lung): > 100 µM
TGI (SK-MEL-28 melanoma): > 100 µM
TGI (PC-3 prostate): > 100 µM
TGI (SR leukemia): > 100 µM
TGI (SK-OV-3 ovarian): > 100 µM
TGI (HCC-2998 colon): > 100 µM
TGI (K-562 leukemia): > 100 µM
